Assay results from patent US12522602B2, “Derivatives having 2,3-dihydro-1H-indene or 2,3-dihydrobenzofuran moiety or pharmaceutically acceptable salt thereof and pharmaceutical compositions comprising the same” (YUHAN CORPORATION, priority 2019, dated 2026).
Read-outs that look alike come from different tables or passages of the source.

Tested on: GM1 production in Jurkat cells
Assay: cells
Assay type: cell-based

For `CC1(C)Cc2ccc(-c3ccc(F)cc3F)cc2C1NC(=O)O[C@@H]1CN2CCC1CC2` (stereo partly drawn) [Example 63, (S)-quinuclidin-3-yl (6-(2,4-difluorophenyl)-2,2-dimethyl-2,3-dihydro-1H-inden-1-yl)carbamate], the IC50 (Homo sapiens, Jurkat, 72 h) was 0.117 µM.
Compound `CC1(C)Cc2ccc(-c3cccc(F)c3F)cc2C1NC(=O)O[C@@H]1CN2CCC1CC2` (stereo partly drawn) [Example 64, (S)-quinuclidin-3-yl (6-(2,3-difluorophenyl)-2,2-dimethyl-2,3-dihydro-1H-inden-1-yl)carbamate] has an IC50 (Homo sapiens, Jurkat, 72 h) of 0.0747 µM.
For `CC1(C)Cc2ccc(-c3cc(F)ccc3F)cc2C1NC(=O)O[C@@H]1CN2CCC1CC2` (stereo partly drawn) [Example 65, (S)-quinuclidin-3-yl (6-(2,5-difluorophenyl)-2,2-dimethyl-2,3-dihydro-1H-inden-1-yl)carbamate], the IC50 (Homo sapiens, Jurkat, 72 h) was 0.0562 µM.
`CC1(C)Cc2ccc(-c3cc(F)cc(F)c3)cc2C1NC(=O)O[C@@H]1CN2CCC1CC2` (stereo partly drawn) [Example 66, (S)-quinuclidin-3-yl (6-(3,5-difluorophenyl)-2,2-dimethyl-2,3-dihydro-1H-inden-1-yl)carbamate] showed an IC50 (Homo sapiens, Jurkat, 72 h) of 0.128 µM.
`CC1(C)Cc2ccc(-c3ccc(F)c(F)c3F)cc2C1NC(=O)O[C@@H]1CN2CCC1CC2` (stereo partly drawn) [Example 67, (S)-quinuclidin-3-yl (2,2-dimethyl-6-(2,3,4-trifluorophenyl)-2,3-dihydro-1H-inden-1-yl)carbamate] gave an IC50 (Homo sapiens, Jurkat, 72 h) of 0.144 µM.
In the case of `CC1(C)Cc2ccc(-c3cc(Cl)cc(Cl)c3)cc2C1NC(=O)O[C@@H]1CN2CCC1CC2` (stereo partly drawn) [Example 69, (S)-quinuclidin-3-yl (6-(3,5-dichlorophenyl)-2,2-dimethyl-2,3-dihydro-1H-inden-1-yl)carbamate], the IC50 (Homo sapiens, Jurkat, 72 h) is reported as 0.4 µM.
Work on `CC1(C)Cc2ccc(-c3ccc(Cl)c(Cl)c3)cc2C1NC(=O)O[C@@H]1CN2CCC1CC2` (stereo partly drawn) [Example 70, (S)-quinuclidin-3-yl (6-(3,4-dichlorophenyl)-2,2-dimethyl-2,3-dihydro-1H-inden-1-yl)carbamate] yielded an IC50 (Homo sapiens, Jurkat, 72 h) of 0.0709 µM.
With `CC1(C)Cc2ccc(-c3cc(Cl)ccc3Cl)cc2C1NC(=O)O[C@@H]1CN2CCC1CC2` (stereo partly drawn) [Example 71, (S)-quinuclidin-3-yl (6-(2,5-dichlorophenyl)-2,2-dimethyl-2,3-dihydro-1H-inden-1-yl)carbamate] the IC50 (Homo sapiens, Jurkat, 72 h) was 0.0643 µM.
Work on `COCCOc1ccc(-c2ccc3c(c2)C(NC(=O)O[C@@H]2CN4CCC2CC4)C(C)(C)C3)cc1` (stereo partly drawn) [Example 72, (S)-quinuclidin-3-yl (6-(4-(2-methoxyethoxy)phenyl)-2,2-dimethyl-2,3-dihydro-1H-inden-1-yl)carbamate] yielded an IC50 (Homo sapiens, Jurkat, 72 h) of 0.0582 µM.
`CC1(C)Cc2cc(-c3ccc(F)cc3)ccc2C1NC(=O)O[C@@H]1CN2CCC1CC2` (stereo partly drawn) [Example 73, (S)-quinuclidin-3-yl (5-(4-fluorophenyl)-2,2-dimethyl-2,3-dihydro-1H-inden-1-yl)carbamate] showed an IC50 (Homo sapiens, Jurkat, 72 h) of 0.026 µM.
Work on `CC1(C)Cc2cc(-c3ccc(Cl)cc3)ccc2C1NC(=O)O[C@@H]1CN2CCC1CC2` (stereo partly drawn) [Example 74, (S)-quinuclidin-3-yl (5-(4-chlorophenyl)-2,2-dimethyl-2,3-dihydro-1H-inden-1-yl)carbamate] yielded an IC50 (Homo sapiens, Jurkat, 72 h) of 0.013 µM.
Work on `CC1(C)Cc2cc(-c3ccc(C(F)(F)F)cc3)ccc2C1NC(=O)O[C@@H]1CN2CCC1CC2` (stereo partly drawn) [Example 75, (S)-quinuclidin-3-yl (2,2-dimethyl-5-(4-(trifluoromethyl)phenyl)-2,3-dihydro-1H-inden-1-yl)carbamate] yielded an IC50 (Homo sapiens, Jurkat, 72 h) of 0.0083 µM.
`CC1(C)Cc2cc(-c3ccc(OC(F)(F)F)cc3)ccc2C1NC(=O)O[C@@H]1CN2CCC1CC2` (stereo partly drawn) [Example 76, (S)-quinuclidin-3-yl (2,2-dimethyl-5-(4-(trifluoromethoxy)phenyl)-2,3-dihydro-1H-inden-1-yl)carbamate] showed an IC50 (Homo sapiens, Jurkat, 72 h) of 0.0037 µM.
With `CC1(C)Cc2cc(-c3cccc(F)c3)ccc2C1NC(=O)O[C@@H]1CN2CCC1CC2` (stereo partly drawn) [Example 77, (S)-quinuclidin-3-yl (5-(3-fluorophenyl)-2,2-dimethyl-2,3-dihydro-1H-inden-1-yl)carbamate] the IC50 (Homo sapiens, Jurkat, 72 h) was 0.0063 µM.
Compound `CC1(C)Cc2cc(-c3cccc(Cl)c3)ccc2C1NC(=O)O[C@@H]1CN2CCC1CC2` (stereo partly drawn) [Example 78, (S)-quinuclidin-3-yl (5-(3-chlorophenyl)-2,2-dimethyl-2,3-dihydro-1H-inden-1-yl)carbamate] has an IC50 (Homo sapiens, Jurkat, 72 h) of 0.0035 µM.
`CC1(C)Cc2cc(-c3cccc(C(F)(F)F)c3)ccc2C1NC(=O)O[C@@H]1CN2CCC1CC2` (stereo partly drawn) [Example 79, (S)-quinuclidin-3-yl (2,2-dimethyl-5-(3-(trifluoromethyl)phenyl)-2,3-dihydro-1H-inden-1-yl)carbamate] showed an IC50 (Homo sapiens, Jurkat, 72 h) of 0.0039 µM.
`CC1(C)Cc2ccc(-c3cccc(OC(F)(F)F)c3)cc2C1NC(=O)O[C@@H]1CN2CCC1CC2` (stereo partly drawn) [Example 80, (S)-quinuclidin-3-yl (2,2-dimethyl-6-(3-(trifluoromethoxy)phenyl)-2,3-dihydro-1H-inden-1-yl)carbamate] showed an IC50 of 0.0041 µM.
`CC1(C)Cc2cc(-c3ccccc3F)ccc2C1NC(=O)O[C@@H]1CN2CCC1CC2` (stereo partly drawn) [Example 81, (S)-quinuclidin-3-yl (5-(2-fluorophenyl)-2,2-dimethyl-2,3-dihydro-1H-inden-1-yl)carbamate] showed an IC50 (Homo sapiens, Jurkat, 72 h) of 0.0122 µM.
`CC1(C)Cc2cc(-c3ccccc3Cl)ccc2C1NC(=O)O[C@@H]1CN2CCC1CC2` (stereo partly drawn) [Example 82, (S)-quinuclidin-3-yl (5-(2-chlorophenyl)-2,2-dimethyl-2,3-dihydro-1H-inden-1-yl)carbamate] gave an IC50 (Homo sapiens, Jurkat, 72 h) of 0.0032 µM.
Work on `CC1(C)Cc2cc(-c3ccccc3C(F)(F)F)ccc2C1NC(=O)O[C@@H]1CN2CCC1CC2` (stereo partly drawn) [Example 83, (S)-quinuclidin-3-yl (2,2-dimethyl-5-(2-(trifluoromethyl)phenyl)-2,3-dihydro-1H-inden-1-yl)carbamate] yielded an IC50 (Homo sapiens, Jurkat, 72 h) of 0.0037 µM.
Work on `CC1(C)Cc2cc(-c3ccccc3OC(F)(F)F)ccc2C1NC(=O)O[C@@H]1CN2CCC1CC2` (stereo partly drawn) [Example 84, (S)-quinuclidin-3-yl (2,2-dimethyl-5-(2-(trifluoromethoxy)phenyl)-2,3-dihydro-1H-inden-1-yl)carbamate] yielded an IC50 (Homo sapiens, Jurkat, 72 h) of 0.0049 µM.
`Cc1ccc(-c2ccc3c(c2)CC(C)(C)C3NC(=O)O[C@@H]2CN3CCC2CC3)cc1` (stereo partly drawn) [Example 85, (S)-quinuclidin-3-yl (2,2-dimethyl-5-(p-tolyl)-2,3-dihydro-1H-inden-1-yl)carbamate] gave an IC50 (Homo sapiens, Jurkat, 72 h) of 0.0116 µM.
Work on `CC1(C)Cc2cc(-c3ccc(OC(F)F)cc3)ccc2C1NC(=O)O[C@@H]1CN2CCC1CC2` (stereo partly drawn) [Example 86, (S)-quinuclidin-3-yl (5-(4-(difluoromethoxy)phenyl)-2,2-dimethyl-2,3-dihydro-1H-inden-1-yl)carbamate] yielded an IC50 (Homo sapiens, Jurkat, 72 h) of 0.0138 µM.
For `CC1(C)Cc2cc(-c3ccc(F)c(F)c3)ccc2C1NC(=O)O[C@@H]1CN2CCC1CC2` (stereo partly drawn) [Example 87, (S)-quinuclidin-3-yl (5-(3,4-difluorophenyl)-2,2-dimethyl-2,3-dihydro-1H-inden-1-yl)carbamate], the IC50 (Homo sapiens, Jurkat, 72 h) was 0.0428 µM.
`CC1(C)Cc2cc(-c3cc(F)ccc3F)ccc2C1NC(=O)O[C@@H]1CN2CCC1CC2` (stereo partly drawn) [Example 88, (S)-quinuclidin-3-yl (5-(2,5-difluorophenyl)-2,2-dimethyl-2,3-dihydro-1H-inden-1-yl)carbamate] gave an IC50 (Homo sapiens, Jurkat, 72 h) of 0.0111 µM.
With `CC1(C)Cc2cc(-c3ccc(F)cc3F)ccc2C1NC(=O)O[C@@H]1CN2CCC1CC2` (stereo partly drawn) [Example 89, (S)-quinuclidin-3-yl (5-(2,4-difluorophenyl)-2,2-dimethyl-2,3-dihydro-1H-inden-1-yl)carbamate] the IC50 (Homo sapiens, Jurkat, 72 h) was 0.05 µM.
